Experimental data from patent US4431652A, “4-Hydroxy-5-substituted-3(2H)-isothiazolone-1,1-dioxide derivatives useful in treating urinary tract calcium oxalate lithiasis” (Merck & Co., Inc., priority 1980, dated 1984).

Target: T1, pig liver glycolate oxidase (Sus scrofa, UniProt I3LVF1)
T1 construct: The enzyme was pig liver glycolate oxidase; from tissue; host or cells: pig liver
T1 sequence (I3LVF1 1-370): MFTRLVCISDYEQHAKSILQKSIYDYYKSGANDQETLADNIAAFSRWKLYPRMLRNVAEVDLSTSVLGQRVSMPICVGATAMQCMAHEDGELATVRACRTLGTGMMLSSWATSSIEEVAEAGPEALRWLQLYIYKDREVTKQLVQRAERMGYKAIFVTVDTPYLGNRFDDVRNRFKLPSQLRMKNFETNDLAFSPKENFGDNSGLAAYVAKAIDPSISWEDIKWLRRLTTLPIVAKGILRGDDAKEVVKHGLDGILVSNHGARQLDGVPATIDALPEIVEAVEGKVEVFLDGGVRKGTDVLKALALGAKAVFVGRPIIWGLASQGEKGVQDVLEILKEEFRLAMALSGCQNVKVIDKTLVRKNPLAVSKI
Assay: Glycolate oxidase enzyme inhibition (rate of reduction of sodium 2,6-dichlorophenol-indophenol by sodium glycolate, 600 nm)
Format: biochemical
Details: 25° C., 0.10 M phosphate buffer, pH 7.0, 3 mM EDTA, 2×10^-4 M sodium glycolate, 5×10^-5 M sodium 2,6-dichlorophenol-indophenol, initial rates 1 to 3 min
Method: The usefulness of the compounds of the present invention in treating urinary tract, especially renal, calcium oxalate lithiasis, was shown by the ability of these compounds to inhibit the glycolate oxidase enzyme. […] The activity of the enzyme, in turn, was measured by following the rate of reduction of sodium 2,6-dichlorophenol-indophenol by sodium glycolate in the presence of the enzyme. The enzyme was pig liver glycolate oxidase. The reaction was following spectrophotometrically at 600 nm. The assay was conducted at 25° C. in a 0.10 M phosphate buffer, pH 7.0, contining 3 mM EDTA. Initial substrate concentrations were 5×10^-5 M of sodium 2,6-dichlorophenol-indophenol and 2×10^-4 M of sodium glycolate. Reactions were initiated by the addition of enzyme. Initial rates during the period from 1 to 3 min. after the addition of enzyme were recorded on a Beckman Acta M-VI spectrophotometer. One control was run simultaneously with three test reactions, and all initial rates were adjusted to a common control rate. For further details of this procedure, see Randall et al., J. Med. Chem., 22, 6, 612 (1979).

Row | IC50 | Compound
1 | 110 nM | O=C1NS(=O)(=O)C(c2csc(-c3ccc(Cl)c(Cl)c3)n2)=C1O [5-[2-(3,4-Dichlorophenyl)thiazol-4-yl]-4-hydroxy-3(2H)-isothiazolone-1,1-dioxide]
2 | 600 nM | O=C1NS(=O)(=O)C(c2nc(-c3ccc(Cl)c(Cl)c3)cs2)=C1O [5-[4-(3,4-Dichlorophenyl)thiazol-2-yl]-4-hydroxy-3(2H)-isothiazolone-1,1-dioxide]
